Experimental data from article PMC7948455, “Novel drug discovery platform for spinocerebellar ataxia, using fluorescence technology targeting β-III-spectrin” (The Journal of Biological Chemistry, 2020).
Values joined by “and” are separate entries in the source; they are usually repeats but may differ in a detail not shown here. Equal values may be shown once.

Assays:
[1] = molecular target: T1, binding of the mutant β-III-spectrin L253P ABD to F-actin (Homo sapiens, UniProt O15020, L253P); assay: Primary live-cell FRET assay (GFP-ABD-L253P + Lifeact-mCherry) in HEK293-6E cells; format: cell-based; conditions: for Effect of Hit compound on primary FRET: LOPAC Hits (10 μM screen, 4SD threshold, 120 min) and dose response
T1 construct: the β-III-spectrin (human) ABD residues 1 to 284; expressed in transfected cells; host or cells: HEK293-6E (pTT5 vector, transient transfection)
T1 sequence (O15020 1-284 L253P): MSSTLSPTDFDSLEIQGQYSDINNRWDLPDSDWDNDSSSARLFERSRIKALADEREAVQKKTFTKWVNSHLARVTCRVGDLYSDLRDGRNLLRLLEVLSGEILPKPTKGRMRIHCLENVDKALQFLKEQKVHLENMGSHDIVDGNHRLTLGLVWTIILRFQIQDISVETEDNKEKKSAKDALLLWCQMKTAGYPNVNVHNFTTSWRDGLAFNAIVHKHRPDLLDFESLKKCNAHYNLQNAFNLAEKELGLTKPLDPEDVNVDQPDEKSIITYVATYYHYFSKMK
Method: To develop a biosensor that monitors the binding of mutant L253P β-III-spectrin to actin filaments in live cells, a FRET approach was tested. A FRET donor construct consisting of green fluorescent protein fused to the N terminus of the mutant ABD (GFP-ABD-L253P) was coexpressed in HEK293-EBNA1-6E (HEK293-6E) cells with a FRET acceptor construct consisting of the actin-binding peptide, Lifeact, fused to the N terminus of red fluorescent protein, mCherry (Lifeact-mCherry). Lifeact is a 17 amino acid peptide derived from the yeast actin-binding protein, ABP140 ([15]). […] The cryo-EM structures of ABD L253P and Lifeact on actin indicate that the binding sites overlap on actin units. With ABD L253P and Lifeact bound on neighboring actin units, we predicted an average distance of ∼80 Å between GFP and mCherry (Fig. 1). With a known Förster distance R0 of 52.4 Å ([17]), this corresponds to FRET value of 0.07, a sufficient signal for a biosensor platform. To design a system most compatible for large production and eventual screening of 50,000+ compound libraries, we used HEK293-6E cells, a suspension cell line that yields greater levels (>threefold) of recombinant protein expression ([18], [19]).
With a constant amount of GFP-ABD-L253P expressed, increased Lifeact-mCherry expression increases FRET with an exponential plateau to 0.12 (Fig. 2A). To measure the nonspecific component of our FRET readout, we concurrently tested expression of mCherry in place of Lifeact-mCherry. For comparison, the Lifeact-mCherry and mCherry fluorescence intensity values (normalized to 1:1 GFP-ABD:Lifeact-mCherry sample) are plotted on the X-axis for samples transfected with different donor-to-acceptor DNA ratios. […] With the trade-off between high FRET and minimal nonspecific FRET, the donor:acceptor ratio 1:2 was chosen for the experiments that followed (Fig. 2A). […] Of note, we also tested the biosensor using WT-ABD, which yielded substantially lower FRET (Fig. S1), consistent with the 1000-fold decrease in affinity of WT-ABD for actin ([10]). We proceeded to test the compatibility of the GFP-ABD-L253P and Lifeact-mCherry assay for primary compound screening and the GFP-ABD-L253P and mCherry assay as a potential high-throughput counter screen.
To test the performance of the assay in HTS, the 1280 LOPAC compounds, together with 256 DMSO controls, were dispensed in 5 nl volumes into individual wells of 1536-well microplates and stored at −20 °C until use. To test the reproducibility of replicate screens on the same day, a single batch of HEK293 cells was transfected with GFP-ABD-L253P and Lifeact-mCherry. In addition, control cells were transfected with only GFP-ABD-L253P, to determine compound effect on donor-only lifetime (τD). To test reproducibility of the screens across different days, identical transfections were performed on another batch of HEK293-6E cells on a second day. Following plate thaw, 5 μl of assay cells were loaded in each well via a multidrop liquid dispenser, and a time course of compound effects (at 20, 120, and 180 min post load) on fluorescence lifetime was acquired using a fluorescence lifetime plate reader (FLT-PR). This technology has been advanced to high-density 1536-well plates in recent years for successful HTS using a range of protein biosensors including sarcoplasmic reticulum Ca-ATPase ([24], [25], [26], [27]), ryanodine receptor ([23], [28]), actin ([20]), tumor necrosis factor receptor 1 ([29], [30]), and tau ([31]).
At 2 × 10^6 cells/ml, HEK293-6E cells were transfected with GFP-ABD-L253P or GFP-ABD-WT (2.4 μg), Lifeact-mCherry (2.4–16.8 μg), mCherry (1.2–16.8 μg), and/or pTT5 (0.8–17.6 μg), as indicated, using the 293fectin protocol (Thermo Fisher Scientific) with 20 μg total DNA. Cells were transfected with either GFP-ABD-L253P or –WT, but coexpression of the WT and mutant isoform was not explored in this study. The cells were harvested 24 h later by centrifugation at 100g for 5 min and then washed twice with PBS. […]

ABD L253P = molecular target: T2, ABD L253P (Homo sapiens, UniProt O15020, L253P); assay: Sedimentation of ABD L253P without actin (aggregation); conditions: 10 μM Hit compound, n = 4
T2 construct: the β-III-spectrin (human) ABD residues 1 to 284; His-SUMO (cleaved yes); made in house; host or cells: E. coli BL21(DE3), vector pE-SUMOpro
T2 sequence (O15020 1-284 L253P): as above
Method: In addition to a reduction in cell viability, the primary and counter screen may be sensitive to compounds that promote ABD-L253P protein aggregation. […] Our assay measuring ABD-L253P cosedimentation with actin is not sensitive to ABD aggregation, as it is designed to work under conditions where ∼90% ABD-L253P cosediments with actin. Nevertheless, we repeated these measurements in the absence of actin.
(§1) F-actin and ABD binding assays were performed as previously described ([10]). In brief, binding assays used 1 μM ABD protein, 1 μM F-actin, and 1 to 50 μM compound (as indicated) or DMSO control for a total reaction volume of 60 μl in F-buffer containing 10 mM Tris, pH 7.5, 150 mM NaCl, 0.5 mM ATP, 2 mM MgCl2, and 1 mM DTT. Following 30 min incubation at room temperature (21 °C). F-actin was pelleted using centrifugation at 100,000g at 25 °C for 30 min. Unbound ABD in the supernatant was measured following SDS-PAGE and Coomassie blue staining in accord ([10]). In addition, control cosedimentations assays that lacked actin were performed to test if compounds cause ABD aggregation. F-actin and Lifeact-mCherry binding assays were undertaken with 2 μM Lifeact-mCherry, 30 μM F-actin, and 1 to 50 μM compound (as indicated) or DMSO control for a total reaction volume of 80 μl in F-buffer. For a no-actin binding control, an assay sample with no F-actin was also set up. Binding reactions were allowed to reach equilibrium at room temperature (21 °C) for 30 min, and then F-actin was pelleted by centrifugation at 100,000g at 25 °C for 30 min. The amount of unbound Lifeact-mCherry was sampled by loading 7 μl of spin supernatant on a low-volume black bottom 384-well plate (Greiner). Amount of mCherry was determined by acquiring fluorescence spectrum peak intensity at ∼600 nm using a spectral unmixing plate reader (Fluorescence Innovations, Inc) equipped with a 532 nm laser (Laserglow Technologies, Ontario, Canada) for excitation, 532 nm long-pass filter for emission, and PMT for emission detection. The fraction of Lifeact-mCherry bound to F-actin was determined by subtracting from one the fraction of supernatant fluorescence intensity relative to the no-actin control sample:(3) Lifeactboundfraction=1−Fcompound/DMSO/FNo−actin where Fcontrol/DMSO is the peak mCherry fluorescence of assay samples containing compound or DMSO control, and Fno-actin is the peak mCherry fluorescence of assay samples that contained no F-actin.

[2] = molecular target: T3, Lifeact-mCherry binding to actin (Oryctolagus cuniculus, UniProt P68135); assay: F-actin and Lifeact-mCherry cosedimentation assay; conditions: for Effect on actin-Lifeact cosedimentation: 10 μM Hit compound
T3 construct: from tissue; host or cells: actin: rabbit psoas muscle; Lifeact-mCherry: made in house in E. coli (pE-SUMOpro)
Method: (§2) Actin was purified from acetone powder derived from the psoas muscle of New Zealand white rabbit (Oryctolagus cuniculus) ([46]). Filamentous (F)-actin was stored for up to 3 days on ice before use in binding assays. Within an hour of the binding assay, the F-actin was clarified at 100,000g at 4 °C for 10 min prior to setting up binding assays. The L253P β-III-spectrin ABD was expressed in E. coli BL21(DE3) (Novagen). The ABD was purified and the His-SUMO tag proteolytically removed, as previously described ([14]), except size-exclusion chromatography was not performed due to the high purity of the ABD protein. Lifeact-mCherry protein was similarly prepared. A Bradford assay was performed to determine clarified F-actin and ABD protein concentrations.
as §1

HEK293-6E cells = assay: Trypan blue cell viability assay; format: cell-based
Method: HEK293-6E cell viability was measured using trypan blue (0.03%) staining and a Countess Automated Cell counter (Invitrogen). Nontransfected HEK293-6E cells were spun at 100g for 5 min at 21 °C and resuspended in 10 ml of PBS. The centrifugation and resuspension were repeated twice more. Final cell concentration was 1 × 10^6 cells/ml. Cells were incubated with 2% DMSO or 3 to 50 μM compound (as indicated) for 3 h at room temperature (21 °C). After addition of 100 μl of 0.06% trypan blue solution in PBS, 10 μl was loaded on a slide and injected into the cell counter, and cell viability was measured.

mammalian cells = conditions: cited from earlier work
actin filaments = conditions: read-out: Affinity for actin; cited from earlier work
[3] = molecular target: T4, ABD-L253P binding to actin (Homo sapiens, UniProt O15020, L253P); assay: F-actin and ABD cosedimentation assay; conditions: 3 μM swinholide A, 50 μM tegaserod; n = 4
T4 construct: the β-III-spectrin (human) ABD residues 1 to 284; His-SUMO (cleaved yes); made in house; host or cells: E. coli BL21(DE3), vector pE-SUMOpro; actin from rabbit psoas muscle tissue
T4 sequence (O15020 1-284 L253P): as above
Method: as §2, §1

[4] = 10 μM Hit compound, 3 h incubation

Row | Molecule | Effect of Hit compound on primary FRET [1] | Effect on ABD pelleting without actin (aggregation) (ABD L253P) | Effect on actin-Lifeact cosedimentation [2] | Effect on HEK293-6E cell viability (HEK293-6E cells; [4]) | further results
1 | CC(C)(Sc1ccc(CCN(CCCCC2CCCCC2)C(=O)NC2CCCCC2)cc1)C(=O)O [GW7647] | decrease FRET | promote aggregation | decreased | dramatically reduced | –
2 | Cc1cc2c(C(C)C)c(O)c(O)c(C=O)c2c(O)c1-c1c(C)cc2c(C(C)C)c(O)c(O)c(C=O)c2c1O [gossypol] | decrease FRET | promote aggregation | – | – | Reduction of cell viability (mammalian cells; 10 μM ref 36, 37, 38): < 10%
3 | CCCc1c(-c2ccc(O)cc2)nn(-c2ccc(O)cc2)c1-c1ccc(O)cc1 [PPT] | decrease FRET | trend toward increasing | – | – | –
4 | GFP-ABD-L253P: green fluorescent protein fused to N terminus of the mutant β-III-spectrin ABD (L253P); FRET donor | – | – | – | – | Kd (actin filaments): 75 nM
5 | [H]/N=C(/NCCCCC)N/N=C/c1c[nH]c2ccc(OC)cc12 [tegaserod] | – | – | – | – | Reduction of Total FRET in primary FRET assay ([1]; 50 μM tegaserod, relative to DMSO): > 50% and 83%; Effect on Lifeact-mCherry cosedimentation with actin ([2]; 3 μM swinholide A, 50 μM tegaserod): did not alter; Effect on HEK293-6E cell viability (HEK293-6E cells; 3 μM swinholide A, 50 μM tegaserod, 3 h): greatly diminished; Decrease in cell viability (HEK293-6E cells; 50 μM tegaserod, 3 h): 92%; Effect on ABD-L253P cosedimentation with actin [3]: no significant effect

More lines, main results first:

Row | Effect of Hit compound on primary FRET [1] | Effect on ABD pelleting without actin (aggregation) (ABD L253P) | Effect on actin-Lifeact cosedimentation [2] | Molecule | Effect on HEK293-6E cell viability (HEK293-6E cells; [4]) | further results
6 | decrease FRET | – | decreased | Clc1ccc(C(c2ccc(Cl)cc2)n2cc[n+](CC(OCc3ccc(Cl)cc3Cl)c3ccc(Cl)cc3Cl)c2)cc1 (centres unmarked) [calmidazolium] | dramatically reduced | Effect on cell viability in mammalian cells (mammalian cells): reduce cell viability
7 | decrease FRET | – | decreased | CCCCCCCCCCCCCCCC(=O)OC(CC(=O)[O-])C[N+](C)(C)C (racemic) [palmitoyl-DL-carnitine] | dramatically reduced | Effect on cell viability in mammalian cells (mammalian cells): reduce cell viability
